Structures are written as SMILES.

The assay has as its system Klebsiella pneumoniae. The assay can be described thus: Antibacterial activity against extended-spectrum beta-lactamase-producing Klebsiella pneumoniae. The class given is functional.
With `CO/N=C(\C(=O)N[C@@H]1C(=O)N2C(C(=O)O)=C(COC(C)=O)CS[C@H]12)c1csc(N)n1` [CEFOTAXIME], the MIC (usually the smallest concentration in the dilution series that meets the test's criterion for growth inhibition) was less than 2 µg/mL.
For `CO/N=C(\C(=O)N[C@@H]1C(=O)N2C(C(=O)O)=C(CSc3nc(=O)c(O)nn3C)CS[C@H]12)c1csc(N)n1` [CEFTRIAXONE], the MIC was less than 2 µg/mL.
Then `CC(C)(O/N=C(\C(=O)N[C@@H]1C(=O)N2C(C(=O)[O-])=C(C[n+]3ccccc3)CS[C@H]12)c1csc(N)n1)C(=O)O` [CEFTAZIDIME], with less than 2 µg/mL.

These data come from ChEMBL document CHEMBL1275488, “Extended-spectrum beta-lactamase production is associated with an increase in cell invasion and expression of fimbrial adhesins in Klebsiella pneumoniae” (2008).
